# Assays:
# Format in all cases: functional
# [1] = Superoxide anion radical scavenging activity by xanthine/xanthine oxidase method
# [2] = ABTS radical scavenging activity
# [3] = DPPH radical scavenging activity
Molecule,IC50 [1] [µM],IC50 [2] [µM],IC50 [3] [µM]
O=C(O)/C=C/c1ccc(O)c(O)c1 [CAFFEIC ACID],2.9,2.8,30
O=c1oc2cc(/C=C/c3ccc(O)c(O)c3)oc(=O)c2c2cc(O)c(O)cc12 [PHELLIGRIDIN D],> 100,13.7,> 100
O=C(O)c1ccc(O)c(O)c1 [PROTOCATECHUIC ACID],> 100,15.7,27
COc1cc(/C=C/c2cc3c(c(=O)o2)-c2cc(O)c(O)cc2C(OC)O3)ccc1O (stereo unspecified) [METHYLINOSCAVIN D],40.7,8.7,> 100
O=Cc1ccc(O)c(O)c1 [PROTOCATECHUALDEHYDE],25.3,5,29.4
VITAMIN E,> 100,8.8,11.5
COC1Oc2cc(/C=C/c3ccc(O)c(O)c3)oc(=O)c2-c2cc(O)c(O)cc21 (stereo unspecified) [INOSCAVIN D],> 100,12.5,> 100
